Measurements reported in PubChem BioAssay (NCI).
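All cell lines were grown in 96-well plates and treated with compound for 48 hours. Abbreviation: GI50, concentration required for 50% inhibition of growth. Definition used: TGI = concentration required for complete inhibition of growth.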

Assays:
Experiment in all cases: growth of human tumour cells (NCI), 48 h
NCI-H226 lung = test system: NCI-H226 lung
SW-620 colon = test system: SW-620 colon
CCRF-CEM leukemia = test system: CCRF-CEM leukemia
SR leukemia = test system: SR leukemia
ACHN renal = test system: ACHN renal
HT29 colon = test system: HT29 colon
NCI-H460 lung = test system: NCI-H460 lung
K-562 leukemia = test system: K-562 leukemia
SK-MEL-28 melanoma = test system: SK-MEL-28 melanoma
SN12C renal = test system: SN12C renal
IGROV1 ovarian = test system: IGROV1 ovarian
MCF7 breast = test system: MCF7 breast
NCI/ADR-RES ovarian = test system: NCI/ADR-RES ovarian
MOLT-4 leukemia = test system: MOLT-4 leukemia
UO-31 renal = test system: UO-31 renal
HCC-2998 colon = test system: HCC-2998 colon
TK-10 renal = test system: TK-10 renal
RPMI-8226 leukemia = test system: RPMI-8226 leukemia
HCT-116 colon = test system: HCT-116 colon
M14 melanoma = test system: M14 melanoma
SF-539 CNS = test system: SF-539 CNS
RXF 393 renal = test system: RXF 393 renal
BT-549 breast = test system: BT-549 breast
KM12 colon = test system: KM12 colon
SK-MEL-2 melanoma = test system: SK-MEL-2 melanoma
PC-3 prostate = test system: PC-3 prostate
DU-145 prostate = test system: DU-145 prostate
OVCAR-3 ovarian = test system: OVCAR-3 ovarian
NCI-H522 lung = test system: NCI-H522 lung
MDA-MB-231 breast = test system: MDA-MB-231 breast
A498 renal = test system: A498 renal
U251 CNS = test system: U251 CNS
T-47D breast = test system: T-47D breast
SNB-19 CNS = test system: SNB-19 CNS
NCI-H23 lung = test system: NCI-H23 lung
SF-295 CNS = test system: SF-295 CNS
UACC-62 melanoma = test system: UACC-62 melanoma
OVCAR-4 ovarian = test system: OVCAR-4 ovarian
COLO 205 colon = test system: COLO 205 colon
786-0 renal = test system: 786-0 renal
SK-MEL-5 melanoma = test system: SK-MEL-5 melanoma
HS 578T breast = test system: HS 578T breast
SF-268 CNS = test system: SF-268 CNS
HCT-15 colon = test system: HCT-15 colon
CAKI-1 renal = test system: CAKI-1 renal
A549 NSCLC = test system: A549 NSCLC
UACC-257 melanoma = test system: UACC-257 melanoma
SK-OV-3 ovarian = test system: SK-OV-3 ovarian
HOP-92 NSCLC = test system: HOP-92 NSCLC
LOX IMVI melanoma = test system: LOX IMVI melanoma
OVCAR-5 ovarian = test system: OVCAR-5 ovarian
MALME-3M melanoma = test system: MALME-3M melanoma
OVCAR-8 ovarian = test system: OVCAR-8 ovarian
HL-60(TB) leukemia = test system: HL-60(TB) leukemia
HOP-62 NSCLC = test system: HOP-62 NSCLC
SNB-75 CNS = test system: SNB-75 CNS
EKVX NSCLC = test system: EKVX NSCLC
MDA-MB-435 = test system: MDA-MB-435

`COc1cc(-c2nn(-c3cccc(NC(=O)c4cccc(C(F)(F)F)c4)c3)cc2-c2ccncc2)ccc1Cl` showed a GI50 (NCI-H226 lung) of 1.66 µM, a TGI (NCI-H226 lung) of 27 µM and a GI50 (SW-620 colon) of 2.31 µM. The TGI (SW-620 colon) was > 50 µM, the GI50 (CCRF-CEM leukemia) was 1.45 µM and the TGI (CCRF-CEM leukemia) was > 50 µM. The GI50 (SR leukemia) was 0.838 µM, the TGI (SR leukemia) was 4.59 µM and the GI50 (ACHN renal) was 1.89 µM. The TGI (ACHN renal) was > 50 µM, the GI50 (HT29 colon) was 1.39 µM and the TGI (HT29 colon) was 20.1 µM. The GI50 (NCI-H460 lung) was 1.45 µM, the TGI (NCI-H460 lung) was 9.27 µM and the GI50 (K-562 leukemia) was 1.4 µM. The TGI (K-562 leukemia) was > 50 µM, the GI50 (SK-MEL-28 melanoma) was 2.49 µM and the TGI (SK-MEL-28 melanoma) was > 50 µM. The GI50 (SN12C renal) was 3.31 µM, the TGI (SN12C renal) was > 50 µM and the GI50 (IGROV1 ovarian) was 1.83 µM. The TGI (IGROV1 ovarian) was > 50 µM, the GI50 (MCF7 breast) was 1.43 µM and the TGI (MCF7 breast) was > 50 µM. For the same molecule, the GI50 (NCI/ADR-RES ovarian) was 1.09 µM, the TGI (NCI/ADR-RES ovarian) was 3.17 µM and the GI50 (MOLT-4 leukemia) was 2.01 µM. The TGI (MOLT-4 leukemia) was > 50 µM, the GI50 (UO-31 renal) was 0.969 µM and the TGI (UO-31 renal) was > 50 µM. For the same molecule, the GI50 (HCC-2998 colon) was 2.24 µM, the TGI (HCC-2998 colon) was 17.6 µM and the GI50 (TK-10 renal) was 3.24 µM. The TGI (TK-10 renal) was > 50 µM, the GI50 (RPMI-8226 leukemia) was 1.57 µM and the TGI (RPMI-8226 leukemia) was 26.6 µM. The GI50 (HCT-116 colon) was 1.67 µM, the TGI (HCT-116 colon) was > 50 µM and the GI50 (M14 melanoma) was 1.63 µM. The TGI (M14 melanoma) was > 50 µM, the GI50 (SF-539 CNS) was 0.895 µM and the TGI (SF-539 CNS) was 2.3 µM. For the same molecule, the GI50 (RXF 393 renal) was 0.812 µM, the TGI (RXF 393 renal) was 3.15 µM and the GI50 (BT-549 breast) was 2.87 µM. The TGI (BT-549 breast) was 46.8 µM, the GI50 (KM12 colon) was 1.66 µM and the TGI (KM12 colon) was > 50 µM. The GI50 (SK-MEL-2 melanoma) was 1.56 µM, the TGI (SK-MEL-2 melanoma) was > 50 µM and the GI50 (PC-3 prostate) was 1.23 µM. The TGI (PC-3 prostate) was > 50 µM, the GI50 (DU-145 prostate) was 1.76 µM and the TGI (DU-145 prostate) was 32.1 µM. For the same molecule, the GI50 (OVCAR-3 ovarian) was 1.2 µM, the TGI (OVCAR-3 ovarian) was 2.98 µM and the GI50 (NCI-H522 lung) was 1.05 µM. For the same molecule, the TGI (NCI-H522 lung) was 3.85 µM, the GI50 (MDA-MB-231 breast) was 1.24 µM and the TGI (MDA-MB-231 breast) was 9.96 µM. It also gave a GI50 (A498 renal) of 0.687 µM, a TGI (A498 renal) of 2.78 µM and a GI50 (U251 CNS) of 1.62 µM. The TGI (U251 CNS) was > 50 µM, the GI50 (T-47D breast) was 2.55 µM and the TGI (T-47D breast) was > 50 µM. The GI50 (SNB-19 CNS) was 2.46 µM, the TGI (SNB-19 CNS) was > 50 µM and the GI50 (NCI-H23 lung) was 1.56 µM. For the same molecule, the TGI (NCI-H23 lung) was 32.5 µM, the GI50 (SF-295 CNS) was 1.02 µM and the TGI (SF-295 CNS) was 3 µM. For the same molecule, the GI50 (UACC-62 melanoma) was 1.94 µM, the TGI (UACC-62 melanoma) was > 50 µM and the GI50 (OVCAR-4 ovarian) was 2.28 µM. For the same molecule, the TGI (OVCAR-4 ovarian) was > 50 µM, the GI50 (COLO 205 colon) was 1.64 µM and the TGI (COLO 205 colon) was 5.17 µM. The GI50 (786-0 renal) was 2.45 µM, the TGI (786-0 renal) was > 50 µM and the GI50 (SK-MEL-5 melanoma) was 0.978 µM. The TGI (SK-MEL-5 melanoma) was 2.47 µM, the GI50 (HS 578T breast) was 1.07 µM and the TGI (HS 578T breast) was > 50 µM. For the same molecule, the GI50 (SF-268 CNS) was 2.13 µM, the TGI (SF-268 CNS) was > 50 µM and the GI50 (HCT-15 colon) was 1.55 µM. For the same molecule, the TGI (HCT-15 colon) was > 50 µM, the GI50 (CAKI-1 renal) was 2.01 µM and the TGI (CAKI-1 renal) was > 50 µM. For the same molecule, the GI50 (A549 NSCLC) was 1.87 µM, the TGI (A549 NSCLC) was > 50 µM and the GI50 (UACC-257 melanoma) was 27.9 µM. For the same molecule, the TGI (UACC-257 melanoma) was > 50 µM, the GI50 (SK-OV-3 ovarian) was 2.29 µM and the TGI (SK-OV-3 ovarian) was > 50 µM. For the same molecule, the GI50 (HOP-92 NSCLC) was 0.554 µM, the TGI (HOP-92 NSCLC) was 3.12 µM and the GI50 (LOX IMVI melanoma) was 1.39 µM. The TGI (LOX IMVI melanoma) was > 50 µM, the GI50 (OVCAR-5 ovarian) was 4.01 µM and the TGI (OVCAR-5 ovarian) was > 50 µM. For the same molecule, the GI50 (MALME-3M melanoma) was 1.89 µM, the TGI (MALME-3M melanoma) was > 50 µM and the GI50 (OVCAR-8 ovarian) was 2 µM. The TGI (OVCAR-8 ovarian) was > 50 µM, the GI50 (HL-60(TB) leukemia) was 2.02 µM and the TGI (HL-60(TB) leukemia) was > 50 µM.

With `CCCCC(C)(C/C=C/[C@@H]1[C@@H](C(O)CCCCCC(=O)OC)C(=O)C[C@H]1O[Si](C)(C)C(C)(C)C)O[Si](C)(C)C` (some centres not stated) the TGI (NCI-H226 lung) was > 100 µM, the TGI (SW-620 colon) was > 100 µM and the TGI (CCRF-CEM leukemia) was 85.4 µM. For the same molecule, the TGI (SR leukemia) was > 100 µM, the TGI (ACHN renal) was > 100 µM and the TGI (HT29 colon) was > 100 µM. The TGI (NCI-H460 lung) was > 100 µM, the TGI (K-562 leukemia) was > 100 µM and the TGI (SK-MEL-28 melanoma) was > 100 µM. For the same molecule, the TGI (SN12C renal) was > 100 µM, the TGI (IGROV1 ovarian) was > 100 µM and the TGI (MCF7 breast) was > 100 µM. The TGI (NCI/ADR-RES ovarian) was > 100 µM, the TGI (MOLT-4 leukemia) was 59.4 µM and the TGI (UO-31 renal) was > 100 µM. For the same molecule, the TGI (HCC-2998 colon) was > 100 µM, the TGI (TK-10 renal) was > 100 µM and the TGI (RPMI-8226 leukemia) was > 100 µM. For the same molecule, the TGI (HCT-116 colon) was > 100 µM, the TGI (M14 melanoma) was > 100 µM and the TGI (HOP-62 NSCLC) was > 100 µM. The TGI (SF-539 CNS) was > 100 µM, the TGI (RXF 393 renal) was > 100 µM and the TGI (BT-549 breast) was > 100 µM. The TGI (SNB-75 CNS) was > 100 µM, the TGI (KM12 colon) was > 100 µM and the TGI (SK-MEL-2 melanoma) was > 100 µM. For the same molecule, the TGI (PC-3 prostate) was > 100 µM, the TGI (EKVX NSCLC) was > 100 µM and the TGI (DU-145 prostate) was > 100 µM. The TGI (OVCAR-3 ovarian) was > 100 µM, the TGI (NCI-H522 lung) was > 100 µM and the TGI (MDA-MB-231 breast) was > 100 µM. The TGI (U251 CNS) was > 100 µM, the TGI (SNB-19 CNS) was > 100 µM and the TGI (NCI-H23 lung) was > 100 µM. For the same molecule, the TGI (SF-295 CNS) was > 100 µM, the TGI (UACC-62 melanoma) was > 100 µM and the TGI (OVCAR-4 ovarian) was > 100 µM. For the same molecule, the TGI (COLO 205 colon) was > 100 µM, the TGI (786-0 renal) was > 100 µM and the TGI (SK-MEL-5 melanoma) was > 100 µM. For the same molecule, the TGI (SF-268 CNS) was > 100 µM, the TGI (HCT-15 colon) was > 100 µM and the TGI (CAKI-1 renal) was 78.1 µM. The TGI (A549 NSCLC) was > 100 µM, the TGI (UACC-257 melanoma) was > 100 µM and the TGI (SK-OV-3 ovarian) was > 100 µM. For the same molecule, the TGI (MDA-MB-435) was > 100 µM, the TGI (HOP-92 NSCLC) was > 100 µM and the TGI (LOX IMVI melanoma) was > 100 µM. For the same molecule, the TGI (OVCAR-5 ovarian) was > 100 µM, the TGI (MALME-3M melanoma) was > 100 µM and the TGI (OVCAR-8 ovarian) was > 100 µM.
